Tests used:
Assay type in all cases: cell-based, human
MYB [1] = assay: Splicing RT-qPCR assay, MYB mRNA canonical junction (CJ) and alternative junction (AJ); details: Homo sapiens; for AC50: increase in AJ mRNA
How it was run: (§1)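 Splice switching is measured in A673 or K562 cells after 24 h compound exposure (maximum 10 uM, 3-fold steps). Canonical and alternative junction mRNA levels are quantified by RT-qPCR relative to housekeeper and DMSO.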

SMN2 = assay: Splicing RT-qPCR panel, SMN2 canonical junction (CJ) mRNA; details: Homo sapiens, RT-qPCR panel, canonical junction mRNA; compound concentration having 50% response in CJ decrease; read-out: SMN2 IC50 (decrease in CJ mRNA levels)
How it was run: as §1

Target C = assay: Splicing RT-qPCR panel, Target C canonical junction (CJ) mRNA; details: Homo sapiens, RT-qPCR panel, canonical junction mRNA; compound concentration having 50% response in CJ decrease; read-out: Target C IC50 (decrease in CJ mRNA levels)
How it was run: as §1

MYB [2] = assay: HiBiT protein abundance assay, MYB; details: Homo sapiens, K562, 24 h, Table 13A, modified K562 cells
How it was run: (§2)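 K562 cells with endogenous HiBiT-tagged target were treated 24 h at 37 °C with compound (10-point 3-fold dilution, top 10 μM final, DMSO ≤0.25%). Lytic LgBiT luminescence was normalized to unmodified K562 (baseline) and DMSO-treated tagged cells; IC50 interpolated at 50% from four-parameter logistic fit.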

HTT = assay: HiBiT protein abundance assay, HTT; details: Homo sapiens, K562, 24 h, Table 13A, modified K562 cells
How it was run: as §2

[3] = 24 h, decrease in CJ mRNA, A673 or K562 cells, 24 hours treatment, RT-qPCR, read-out: MYB CJ IC50
[4] = 24 h, A673 or K562 cells, 24 hours treatment, RT-qPCR
[5] = RT-qPCR panel, canonical junction mRNA, compound concentration having 50% response in CJ decrease, read-out: MYB IC50 (decrease in CJ mRNA levels)

| Compound | IC50 (MYB [1]; [3]) | AC50 (MYB [1]; [4]) | IC50 (MYB [1]; [5]) | IC50 (SMN2) | IC50 (Target C) | IC50 (MYB [2]) | IC50 (HTT) |
| --- | --- | --- | --- | --- | --- | --- | --- |
| CN(c1ccc(-c2cc(F)c(-c3cn[nH]c3)c3cn[nH]c23)nn1)[C@@H]1C[C@H]2CC(F)(F)[C@@H](C1)N2 (stereo in doubt) [Compound 378, 6,6-difluoro-N-{6-[5-fluoro-4-(1H-pyrazol-4-yl)-1H-indazol-7-yl]pyridazin-3-yl}-N-methyl-8-azabicyclo[3.2.1]octan-3-amine] | 100 to 1000 nM | < 100 nM | 100 to 1000 nM | < 100 nM | 100 to 1000 nM | 100 to 1000 nM | < 100 nM |
| CN(c1ccc(-c2ccc(-c3cn[nH]c3)c3ncsc23)nn1)[C@@H]1C[C@H]2CC(F)(F)[C@@H](C1)N2 (stereo in doubt) [Compound 379, 6,6-difluoro-N-methyl-N-{6-[4-(1H-pyrazol-4-yl)-1,3-benzothiazol-7-yl]pyridazin-3-yl}-8-azabicyclo [3.2.1]octan-3-amine] | 100 to 1000 nM | 100 to 1000 nM | 100 to 1000 nM | < 100 nM | 100 to 1000 nM | 100 to 1000 nM | < 100 nM |
| CN(c1ccc(-c2ccc(-c3cn[nH]c3)c3cn[nH]c23)nn1)[C@@H]1C[C@H]2CC[C@@H](C1)N2 [Compound 104] | 1000 to 10000 nM | 1000 to 10000 nM | 1000 to 10000 nM | < 100 nM | 100 to 1000 nM | 100 to 1000 nM | < 100 nM |
| CN(c1ccc(-c2ccc(-n3cccn3)c3cn[nH]c23)nn1)[C@@H]1C[C@H]2CC[C@@H](C1)N2 [Compound 105] | < 100 nM | 100 to 1000 nM | < 100 nM | < 100 nM | < 100 nM | < 100 nM | < 100 nM |
| CN(c1ccc(-c2ccc(-c3cn[nH]c3)c3ncsc23)nn1)C1CC(C)(C)NC(C)(C)C1 [Compound 132] | 100 to 1000 nM | 1000 to 10000 nM | 100 to 1000 nM | < 100 nM | 100 to 1000 nM | 100 to 1000 nM | 100 to 1000 nM |
| CN(c1ccc(-c2ccc(-c3cn[nH]c3)c3cn[nH]c23)nn1)C1CC(C)(C)NC(C)(C)C1 [Compound 137] | 1000 to 10000 nM | 1000 to 10000 nM | 1000 to 10000 nM | 100 to 1000 nM | 1000 to 10000 nM | 100 to 1000 nM | 100 to 1000 nM |
| CN(c1ccc(-c2ccc(-c3ccc(=O)n(C)c3)c3scnc23)nn1)C1CC(C)(C)NC(C)(C)C1 [Compound 178] | 1000 to 10000 nM | > 10000 nM | 1000 to 10000 nM | > 10000 nM | > 10000 nM | 1000 to 10000 nM | > 10000 nM |
| CC1(C)CC(Oc2ccc(-c3ccc(-c4cn[nH]c4)c4ncsc34)nn2)CCN1 (centres unmarked) [Compound 182] | 1000 to 10000 nM | > 10000 nM | 1000 to 10000 nM | 100 to 1000 nM | 1000 to 10000 nM | 100 to 1000 nM | < 100 nM |
| c1nc2c(-c3cn[nH]c3)ccc(-c3ccc(OC4CCNCC4)nn3)c2s1 [Compound 183] | 100 to 1000 nM | 100 to 1000 nM | 100 to 1000 nM | 100 to 1000 nM | 100 to 1000 nM | 100 to 1000 nM | < 100 nM |
| c1nc2c(-c3cn[nH]c3)ccc(-c3ccc(O[C@@H]4C[C@H]5CC[C@@H](C4)N5)nn3)c2s1 [Compound 184] | 100 to 1000 nM | < 100 nM | 100 to 1000 nM | < 100 nM | 100 to 1000 nM | 100 to 1000 nM | < 100 nM |
| CC1(C)CC(Nc2ccc(-c3ccc(-c4cn[nH]c4)c4ncsc34)nn2)CC(C)(C)N1 [Compound 186] | 100 to 1000 nM | > 10000 nM | 100 to 1000 nM | < 100 nM | 100 to 1000 nM | 100 to 1000 nM | < 100 nM |
| c1nc2c(-c3cn[nH]c3)ccc(-c3ccc(N[C@@H]4C[C@H]5CC[C@@H](C4)N5)nn3)c2s1 [Compound 202] | 100 to 1000 nM | 100 to 1000 nM | 100 to 1000 nM | < 100 nM | 100 to 1000 nM | 100 to 1000 nM | < 100 nM |
| CCN(c1ccc(C2=CC=C(c3cn[nH]c3)C3N=CSC23)nn1)[C@@H]1C[C@H]2CC[C@@H](C1)N2 (some centres unmarked) [Compound 203] | 100 to 1000 nM | 100 to 1000 nM | 100 to 1000 nM | < 100 nM | 100 to 1000 nM | < 100 nM | < 100 nM |
| CN(c1ccc(-c2ccc(-c3cn[nH]c3)c3ncsc23)nn1)[C@H]1C[C@]2(C)CC[C@](C)(C1)N2 [Compound 204] | < 100 nM | 100 to 1000 nM | < 100 nM | < 100 nM | < 100 nM | < 100 nM | < 100 nM |
| [2H]C([2H])([2H])N(c1ccc(-c2ccc(-c3cn[nH]c3)c3ncsc23)nn1)[C@@H]1C[C@H]2CC[C@@H](C1)N2 [Compound 210] | < 100 nM | < 100 nM | < 100 nM | < 100 nM | < 100 nM | < 100 nM | < 100 nM |
| CN(c1ccc(-c2ccc(-c3cn[nH]c3)c3ncsc23)nn1)[C@@H]1C[C@H]2CC[C@@H](C1)N2 [Compound 213] | 100 to 1000 nM | 100 to 1000 nM | 100 to 1000 nM | < 100 nM | < 100 nM | < 100 nM | < 100 nM |
| c1nc2c(-c3cn[nH]c3)ccc(-c3ccc(N[C@@H]4C[C@H]5CCC[C@@H](C4)N5)nn3)c2s1 [Compound 215] | 100 to 1000 nM | < 100 nM | 100 to 1000 nM | < 100 nM | < 100 nM | < 100 nM | < 100 nM |
| Fc1cc(-c2ccc(O[C@@H]3C[C@H]4CC[C@@H](C3)N4)nn2)c2[nH]ncc2c1-c1cn[nH]c1 [Compound 216] | 100 to 1000 nM | < 100 nM | 100 to 1000 nM | < 100 nM | 100 to 1000 nM | < 100 nM | < 100 nM |
| CN(c1ccc(-c2ccc(-c3cn[nH]c3)c3ncsc23)nn1)[C@@H]1C[C@H]2CCC[C@@H](C1)N2 [Compound 226] | < 100 nM | < 100 nM | < 100 nM | < 100 nM | < 100 nM | < 100 nM | < 100 nM |
| [2H]C([2H])([2H])N(c1ccc(-c2ccc(-c3cn[nH]c3)c3ncsc23)nn1)[C@@H]1C[C@H]2CCC[C@@H](C1)N2 [Compound 227] | < 100 nM | < 100 nM | < 100 nM | < 100 nM | < 100 nM | < 100 nM | < 100 nM |
| CCN(c1ccc(-c2ccc(-c3cn[nH]c3)c3ncsc23)nn1)[C@@H]1C[C@H]2CCC[C@@H](C1)N2 [Compound 228] | 100 to 1000 nM | 100 to 1000 nM | 100 to 1000 nM | < 100 nM | < 100 nM | < 100 nM | < 100 nM |
| CN(c1ccc(-c2ccc(-c3cnn(C)c3)c3cn[nH]c23)nn1)C1CCNCC1 [Compound 242] | > 10000 nM | > 10000 nM | > 10000 nM | 1000 to 10000 nM | > 10000 nM | 1000 to 10000 nM | 1000 to 10000 nM |
| CN(c1ccc(-c2cc(F)c(-c3cnn(C)c3)c3cn[nH]c23)nn1)[C@@H]1C[C@H]2CC[C@@H](C1)N2 [Compound 291] | < 100 nM | < 100 nM | < 100 nM | < 100 nM | < 100 nM | < 100 nM | < 100 nM |

Reference: US20240368163A1, “COMPOUNDS AND METHODS FOR MODULATING SPLICING” (REMIX THERAPEUTICS INC., priority 2021, published 2024)
